Laboratory results taken from ChEMBL document CHEMBL4387729, “Synthesis and structure-activity relationship of 4-alkoxy-thieno[2,3-b]pyridine derivatives as potent alkaline phosphatase enhancers for osteoporosis treatment” (Bioorg Med Chem Lett, 2019).
≈ marks a conversion by molar mass, not a printed value. Each block holds one molecule with its values, some of them ahead of it. Calls of active or inactive are those of the source. The rule behind the calls is not given here.

What was measured:
[1] = target: T1, Alkaline phosphatase, tissue-nonspecific isozyme (Mus musculus) (UniProt P09242); test: Induction of alkaline phosphatase activity in mouse ST-2 cells after 4 days by spectrophotometric method; assay type: cell-based
T1 sequence (whole entry): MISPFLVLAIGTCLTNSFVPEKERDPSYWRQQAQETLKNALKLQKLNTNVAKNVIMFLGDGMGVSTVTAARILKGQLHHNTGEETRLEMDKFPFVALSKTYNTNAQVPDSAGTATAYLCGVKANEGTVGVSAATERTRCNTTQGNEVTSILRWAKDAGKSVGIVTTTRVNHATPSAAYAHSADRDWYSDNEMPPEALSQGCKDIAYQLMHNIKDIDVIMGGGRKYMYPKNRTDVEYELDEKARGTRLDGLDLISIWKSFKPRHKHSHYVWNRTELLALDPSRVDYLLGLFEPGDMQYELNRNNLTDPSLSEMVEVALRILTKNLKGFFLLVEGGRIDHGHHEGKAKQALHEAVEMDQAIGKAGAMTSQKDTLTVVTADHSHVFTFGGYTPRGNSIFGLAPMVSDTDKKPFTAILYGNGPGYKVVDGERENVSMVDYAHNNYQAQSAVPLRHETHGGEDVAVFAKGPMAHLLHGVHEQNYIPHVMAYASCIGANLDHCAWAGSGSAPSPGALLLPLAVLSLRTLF

CYP3A4 [2] = target: T2, CYP3A4 (Homo sapiens, UniProt P08684); test: in vitro; conditions: human liver microsomes
T2 sequence (P08684 whole entry): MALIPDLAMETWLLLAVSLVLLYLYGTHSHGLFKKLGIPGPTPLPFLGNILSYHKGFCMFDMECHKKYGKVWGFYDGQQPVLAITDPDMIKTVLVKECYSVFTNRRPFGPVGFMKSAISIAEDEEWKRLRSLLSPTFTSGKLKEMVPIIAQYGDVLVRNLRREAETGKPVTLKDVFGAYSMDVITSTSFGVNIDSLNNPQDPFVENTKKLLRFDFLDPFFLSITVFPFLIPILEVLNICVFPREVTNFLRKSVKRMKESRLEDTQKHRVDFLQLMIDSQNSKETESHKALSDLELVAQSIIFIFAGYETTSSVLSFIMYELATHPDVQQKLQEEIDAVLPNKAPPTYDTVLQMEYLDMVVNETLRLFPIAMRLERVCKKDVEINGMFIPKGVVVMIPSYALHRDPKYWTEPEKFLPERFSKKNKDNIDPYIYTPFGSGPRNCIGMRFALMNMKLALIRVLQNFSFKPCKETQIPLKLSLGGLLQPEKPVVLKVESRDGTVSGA
Description: Time dependent inhibition of CYP3A4 in human liver microsomes assessed as enzyme residual activity at 100 uM relative to control

[3] = Metabolic stability in human liver microsomes assessed as parent compound remaining after 30 mins; assay type: ADME, Microsome; conditions: read-out: Stability
[4] = Metabolic stability in rat liver microsomes assessed as parent compound remaining after 30 mins; assay type: ADME, Microsome; conditions: read-out: Stability
CYP2C19 = CYP2C19 (Homo sapiens, UniProt P33261); test: Inhibition of CYP2C19 (unknown origin) at 10 uM relative to control; assay type: ADME
Sequence of CYP2C19 (P33261 whole entry): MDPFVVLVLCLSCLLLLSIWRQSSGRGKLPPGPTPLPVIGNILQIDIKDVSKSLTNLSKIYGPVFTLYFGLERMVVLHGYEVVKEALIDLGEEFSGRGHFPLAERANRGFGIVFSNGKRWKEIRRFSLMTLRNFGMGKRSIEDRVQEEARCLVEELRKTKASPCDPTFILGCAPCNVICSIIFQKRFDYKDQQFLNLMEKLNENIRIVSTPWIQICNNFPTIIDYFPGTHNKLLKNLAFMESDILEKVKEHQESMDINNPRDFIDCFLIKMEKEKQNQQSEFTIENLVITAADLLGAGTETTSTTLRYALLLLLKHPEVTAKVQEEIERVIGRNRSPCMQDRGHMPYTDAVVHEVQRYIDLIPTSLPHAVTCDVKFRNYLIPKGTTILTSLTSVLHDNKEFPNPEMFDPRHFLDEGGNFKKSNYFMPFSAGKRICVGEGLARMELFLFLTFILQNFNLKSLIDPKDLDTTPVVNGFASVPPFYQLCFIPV

[5] = Cmax in F344 rat at 60 mg/kg, po; assay type: ADME, organism-based; design: dose 60 mg/kg, route oral; conditions: in vivo
CYP2C9 = CYP2C9 (Homo sapiens, UniProt P11712); test: Inhibition of CYP2C9 (unknown origin) at 10 uM relative to control; assay type: ADME
Sequence of CYP2C9 (P11712 whole entry): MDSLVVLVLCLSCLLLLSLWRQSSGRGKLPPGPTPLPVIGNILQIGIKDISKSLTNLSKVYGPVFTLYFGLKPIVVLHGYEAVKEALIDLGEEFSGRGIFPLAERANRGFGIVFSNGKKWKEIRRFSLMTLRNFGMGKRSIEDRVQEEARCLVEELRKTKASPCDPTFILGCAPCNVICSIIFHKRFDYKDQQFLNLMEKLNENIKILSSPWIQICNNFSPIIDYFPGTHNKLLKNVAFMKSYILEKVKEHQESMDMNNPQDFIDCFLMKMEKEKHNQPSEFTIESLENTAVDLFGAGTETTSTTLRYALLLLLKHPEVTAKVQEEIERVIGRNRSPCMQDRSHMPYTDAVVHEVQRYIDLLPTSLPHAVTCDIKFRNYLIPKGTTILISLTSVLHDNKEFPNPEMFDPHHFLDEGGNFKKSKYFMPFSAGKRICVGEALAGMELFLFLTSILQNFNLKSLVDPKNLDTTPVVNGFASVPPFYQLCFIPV

CYP3A4 [6] = target: T2, CYP3A4; test: in vitro
CYP2D6 = CYP2D6 (Homo sapiens, UniProt P10635); test: Inhibition of CYP2D6 (unknown origin) at 10 uM relative to control; assay type: ADME
Sequence of CYP2D6 (P10635 whole entry): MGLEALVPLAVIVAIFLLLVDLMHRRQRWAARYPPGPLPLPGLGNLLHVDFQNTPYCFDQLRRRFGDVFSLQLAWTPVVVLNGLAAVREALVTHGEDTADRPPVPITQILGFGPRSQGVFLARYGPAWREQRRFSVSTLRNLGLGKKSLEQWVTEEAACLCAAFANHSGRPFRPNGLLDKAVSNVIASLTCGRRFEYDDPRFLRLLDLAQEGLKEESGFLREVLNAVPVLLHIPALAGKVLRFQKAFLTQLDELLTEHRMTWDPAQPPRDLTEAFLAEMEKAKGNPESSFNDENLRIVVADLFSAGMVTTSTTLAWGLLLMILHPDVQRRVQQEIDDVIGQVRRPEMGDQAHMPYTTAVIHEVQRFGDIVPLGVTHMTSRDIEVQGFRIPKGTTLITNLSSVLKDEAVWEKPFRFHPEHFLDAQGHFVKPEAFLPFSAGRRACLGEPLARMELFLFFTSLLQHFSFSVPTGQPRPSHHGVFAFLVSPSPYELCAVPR

[7] = AUC (0 to 8 hrs) in F344 rat at 60 mg/kg, po; assay type: ADME, organism-based; design: time < 8 hr, dose 60 mg/kg, route oral; conditions: in vivo
[8] = Solubility of the compound in pH 6.8 JP2 solution; assay type: physicochemical
CYP1A2 = target: T3, CYP1A2 (Homo sapiens, UniProt P05177); test: Inhibition of CYP1A2 (unknown origin) at 10 uM relative to control; assay type: ADME
T3 sequence (P05177 whole entry): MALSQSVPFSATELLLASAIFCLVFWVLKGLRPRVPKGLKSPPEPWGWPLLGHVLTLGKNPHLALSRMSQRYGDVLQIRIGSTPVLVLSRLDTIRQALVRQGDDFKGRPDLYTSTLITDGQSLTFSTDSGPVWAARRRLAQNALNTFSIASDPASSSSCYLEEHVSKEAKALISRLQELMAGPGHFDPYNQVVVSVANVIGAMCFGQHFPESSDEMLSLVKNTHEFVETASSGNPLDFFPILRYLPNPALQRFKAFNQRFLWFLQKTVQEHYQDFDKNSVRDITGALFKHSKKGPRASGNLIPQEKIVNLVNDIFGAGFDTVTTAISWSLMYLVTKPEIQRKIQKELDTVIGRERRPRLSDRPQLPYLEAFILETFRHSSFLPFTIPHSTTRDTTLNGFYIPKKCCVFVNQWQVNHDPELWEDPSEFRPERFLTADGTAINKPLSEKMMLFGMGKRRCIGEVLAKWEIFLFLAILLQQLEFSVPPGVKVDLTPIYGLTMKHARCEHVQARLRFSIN

[9] = Cmax in F344 rat at 30 mg/kg, po; assay type: ADME, organism-based; design: dose 30 mg/kg, route oral; conditions: in vivo
[10] = AUC (0 to 8 hrs) in F344 rat at 30 mg/kg, po; assay type: ADME, organism-based; design: time < 8 hr, dose 30 mg/kg, route oral; conditions: in vivo
Rattus norvegicus [11] = test: Bone anabolic activity in ovariectomized F344 rat assessed as increase in areal bone mineral density in proximal femur at 30 mg/kg/day, po administered for 5 weeks measured post-last dose by dual energy X-ray absorptiometry; assay type: functional, organism-based
Rattus norvegicus [12] = test: Bone anabolic activity in ovariectomized F344 rat assessed as increase in areal bone mineral density in total femur at 30 mg/kg/day, po administered for 5 weeks measured post-last dose by dual energy X-ray absorptiometry; assay type: functional, organism-based
Rattus norvegicus [13] = test: Bone anabolic activity in ovariectomized F344 rat assessed as increase in areal bone mineral density in distal femur at 30 mg/kg/day, po administered for 5 weeks measured post-last dose by dual energy X-ray absorptiometry; assay type: functional, organism-based

EC200 [1]: > 0.3 µg/mL
Structure (SMILES): CC(C)c1ccc(Oc2ccnc3sc(C(N)=O)c(N)c23)cc1

EC200 [1]: 0.0011 µg/mL
Structure (SMILES): Cc1cc(Oc2ccc(CCCC(=O)N(C)C)cc2)c2c(N)c(C(N)=O)sc2n1

EC200 [1]: 0.09 µg/mL
Structure (SMILES): COC(=O)c1ccc(Oc2ccnc3sc(C(N)=O)c(N)c23)cc1

activity at 100 µM (CYP3A4 [2]): 93%
remaining at 0.5 h [3]: 11%
remaining at 0.5 h [4]: 36%
inhibition at 10 µM (CYP2C19): 15%
inhibition at 10 µM (CYP2C9): 13%
inhibition at 10 µM (CYP3A4 [6]): 9%
EC200 [1]: 0.046 µg/mL
inhibition at 10 µM (CYP2D6): 5%
solubility [8]: 6.6 µg/mL (≈ 23.1 µM)
inhibition at 10 µM (CYP1A2): 41%
Structure (SMILES): NC(=O)c1sc2nccc(Oc3ccccc3)c2c1N

EC200 [1]: 0.72 µg/mL
Structure (SMILES): CC(C)Oc1ccnc2sc(C(N)=O)c(N)c12

EC200 [1]: > 1 µg/mL
Structure (SMILES): COc1ccnc2sc(C(N)=O)c(N)c12

EC200 [1]: > 1 µg/mL
Structure (SMILES): CN1CCC(Oc2ccnc3sc(C(N)=O)c(N)c23)CC1

EC200 [1]: 0.022 µg/mL
Structure (SMILES): NC(=O)c1sc2nccc(Oc3ccccc3F)c2c1N

EC200 [1]: > 0.3 µg/mL
Structure (SMILES): CN(C)C(=O)c1ccc(Oc2ccnc3sc(C(N)=O)c(N)c23)cc1

EC200 [1]: 0.149 µg/mL
Structure (SMILES): NC(=O)c1sc2nccc(Oc3cccc(Cl)c3)c2c1N

EC200 [1]: 0.27 µg/mL
Structure (SMILES): CCOc1ccnc2sc(C(N)=O)c(N)c12

EC200 [1]: 0.004 µg/mL
Structure (SMILES): CN(C)C(=O)CCCc1ccc(Oc2ccnc3sc(C(N)=O)c(N)c23)cc1

Further lines, the molecule ahead of its results:

Structure (SMILES): N#Cc1ccc(Oc2ccnc3sc(C(N)=O)c(N)c23)cc1
EC200 [1]: 0.227 µg/mL

Structure (SMILES): C[C@H]1COCC[C@@H]1Oc1ccnc2sc(C(N)=O)c(N)c12
EC200 [1]: 0.27 µg/mL

Structure (SMILES): C[C@H]1CC[C@H](Oc2ccnc3sc(C(N)=O)c(N)c23)CC1
EC200 [1]: 0.037 µg/mL

Structure (SMILES): C[C@H]1CC[C@@H](Oc2ccnc3sc(C(N)=O)c(N)c23)CC1
EC200 [1]: > 1 µg/mL

Structure (SMILES): NC(=O)c1sc2nccc(Oc3ccc(Cl)cc3Cl)c2c1N
EC200 [1]: 0.014 µg/mL

Structure (SMILES): CCc1ccc(Oc2ccnc3sc(C(N)=O)c(N)c23)cc1
EC200 [1]: 0.036 µg/mL

Structure (SMILES): NC(=O)c1sc2nccc(SC3CCCCC3)c2c1N
EC200 [1]: > 1 µg/mL

Structure (SMILES): CN(C)C(=O)COc1ccc(Oc2ccnc3sc(C(N)=O)c(N)c23)cc1
EC200 [1]: 0.023 µg/mL

Structure (SMILES): COc1ccccc1Oc1ccnc2sc(C(N)=O)c(N)c12
EC200 [1]: 0.114 µg/mL

Structure (SMILES): Cc1cc(Oc2ccc(CCCC(=O)N(C)C)cc2F)c2c(N)c(C(N)=O)sc2n1
activity at 100 µM (CYP3A4 [2]): 47%
remaining at 0.5 h [3]: 60%
remaining at 0.5 h [4]: 12%
inhibition at 10 µM (CYP2C19): 10%
Cmax [5]: 96 ng/mL
inhibition at 10 µM (CYP2C9): 17%
inhibition at 10 µM (CYP3A4 [6]): 20%
EC200 [1]: 0.0005 µg/mL
inhibition at 10 µM (CYP2D6): 10%
AUC(0-t) at 8 h [7]: 591 ng·h/mL
solubility [8]: 0.3 µg/mL (≈ 0.697 µM)
inhibition at 10 µM (CYP1A2): 10%

Structure (SMILES): Cc1cc(Oc2ccc(CCCC(=O)N(C)C)cc2Cl)c2c(N)c(C(N)=O)sc2n1
activity at 100 µM (CYP3A4 [2]): 25%
remaining at 0.5 h [3]: 25%
remaining at 0.5 h [4]: 11%
inhibition at 10 µM (CYP2C19): 11%
inhibition at 10 µM (CYP2C9): 30%
inhibition at 10 µM (CYP3A4 [6]): 40%
EC200 [1]: 0.0004 µg/mL
inhibition at 10 µM (CYP2D6): 15%
solubility [8]: 0.2 µg/mL (≈ 0.447 µM)
inhibition at 10 µM (CYP1A2): 6%

Structure (SMILES): NC(=O)c1sc2nccc(N3CCCN(c4ccccc4)CC3)c2c1N
activity at 100 µM (CYP3A4 [2]): 28%
inhibition at 10 µM (CYP2C19): 96%
inhibition at 10 µM (CYP2C9): 71%
inhibition at 10 µM (CYP3A4 [6]): 49%
inhibition at 10 µM (CYP2D6): 34%
inhibition at 10 µM (CYP1A2): 14%

Structure (SMILES): NC(=O)c1sc2nccc(Oc3ccc(CCO)cc3)c2c1N
activity at 100 µM (CYP3A4 [2]): 88%
remaining at 0.5 h [3]: 93%
remaining at 0.5 h [4]: 75%
inhibition at 10 µM (CYP2C19): 8%
Cmax [5]: 1540 ng/mL
inhibition at 10 µM (CYP2C9): 7%
inhibition at 10 µM (CYP3A4 [6]): 0%
EC200 [1]: 0.025 µg/mL
inhibition at 10 µM (CYP2D6): 3%
AUC(0-t) at 8 h [7]: 3580 ng·h/mL
solubility [8]: 39 µg/mL (≈ 118 µM)
inhibition at 10 µM (CYP1A2): 1%

Structure (SMILES): NC(=O)c1sc2nccc(Oc3ccccc3Cl)c2c1N
EC200 [1]: 0.008 µg/mL

Structure (SMILES): CC[C@H]1CC[C@H](Oc2ccnc3sc(C(N)=O)c(N)c23)CC1
EC200 [1]: > 0.3 µg/mL

Structure (SMILES): C[C@@H]1CCC[C@H](Oc2ccnc3sc(C(N)=O)c(N)c23)C1 (relative stereo)
EC200 [1]: > 1 µg/mL

Structure (SMILES): NC(=O)c1sc2nccc(OC3CCOCC3)c2c1N
Cmax [9]: 10400 ng/mL
activity at 100 µM (CYP3A4 [2]): 89%
AUC(0-t) at 8 h [10]: 29800 ng·h/mL
remaining at 0.5 h [3]: 92%
remaining at 0.5 h [4]: 85%
inhibition at 10 µM (CYP2C19): 1%
Activity (Rattus norvegicus [11]): Active
Activity (Rattus norvegicus [12]): Active
Activity (Rattus norvegicus [13]): Active
inhibition at 10 µM (CYP2C9): 1%
inhibition at 10 µM (CYP3A4 [6]): 2%
EC200 [1]: 0.25 µg/mL
inhibition at 10 µM (CYP2D6): 0%
solubility [8]: 180 µg/mL (≈ 614 µM)
inhibition at 10 µM (CYP1A2): 11%

Structure (SMILES): CN(C)c1ccnc2sc(C(N)=O)c(N)c12
inhibition at 10 µM (CYP2C19): 0%
inhibition at 10 µM (CYP2C9): 0%
inhibition at 10 µM (CYP3A4 [6]): 0%
EC200 [1]: 0.17 µg/mL
inhibition at 10 µM (CYP2D6): 1%
inhibition at 10 µM (CYP1A2): 61%

Structure (SMILES): COc1ccc(Oc2ccnc3sc(C(N)=O)c(N)c23)c(Cl)c1
EC200 [1]: 0.008 µg/mL

Structure (SMILES): CN(C)C(=O)CCc1ccc(Oc2ccnc3sc(C(N)=O)c(N)c23)cc1
EC200 [1]: 0.01 µg/mL

Structure (SMILES): CCc1ccccc1Oc1ccnc2sc(C(N)=O)c(N)c12
EC200 [1]: 0.201 µg/mL

Structure (SMILES): CN(C)CCc1ccc(Oc2ccnc3sc(C(N)=O)c(N)c23)cc1
EC200 [1]: 0.058 µg/mL

Structure (SMILES): C[C@H]1CCCC[C@@H]1Oc1ccnc2sc(C(N)=O)c(N)c12 (relative stereo)
remaining at 0.5 h [3]: 20%
remaining at 0.5 h [4]: 7%
EC200 [1]: 0.045 µg/mL
solubility [8]: 42 µg/mL (≈ 138 µM)

Structure (SMILES): NC(=O)c1sc2nccc(OC3CCCCC3)c2c1N
remaining at 0.5 h [3]: 1%
remaining at 0.5 h [4]: 2%
EC200 [1]: 0.14 µg/mL
solubility [8]: 28 µg/mL (≈ 96.1 µM)

Structure (SMILES): NC(=O)c1sc2nccc(Oc3ccc(Cl)cc3)c2c1N
EC200 [1]: 0.021 µg/mL

Structure (SMILES): COc1ccc(Oc2ccnc3sc(C(N)=O)c(N)c23)cc1
EC200 [1]: 0.02 µg/mL
